Values joined by “and” are separate entries in the source; they are usually repeats but may differ in a detail not shown here. Equal entries are not always repeated.
Test system: 349418-098-R-PDC complex spheroid viability
Experiment: Anticancer human tumor 349418-098-R-PDC patient-derived lung adenocarcinoma cell line growth inhibition
Details: for viability, T/C: stronger effect = lower value; active means viability on the fitted dose curve at most 10% of control; inactive means the rest
Procedure, shortened: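 Complex spheroids of tumor cells with HUVEC and human MSCs, exposed to iadademstat combined with other agents. Each agent tested in half-log steps from near clinical Cmax (else 10 microM top), DMSO ≤0.25%.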

[1] = curve of first compound, second compound 0.1 µM
[2] = curve of first compound, second compound 0.316 µM
[3] = curve of first compound, second compound 1 µM
[4] = curve of first compound, second compound 3.16 µM
[5] = curve of first compound, second compound 10 µM
[6] = second compound 0.1 µM, first compound 0.0316 µM
[7] = second compound 0.1 µM, first compound 0.1 µM
[8] = second compound 0.316 µM, first compound 0.0316 µM
[9] = second compound 0.316 µM, first compound 0.1 µM
[10] = second compound 1 µM, first compound 0.0316 µM
[11] = second compound 1 µM, first compound 0.1 µM
[12] = second compound 3.16 µM, first compound 0.0316 µM
[13] = second compound 3.16 µM, first compound 0.1 µM
[14] = second compound 10 µM, first compound 0.0316 µM
[15] = second compound 10 µM, first compound 0.1 µM
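Further: spheroids exposed to agents for seven days before readout.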
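Wherever viability, T/C is given: 100% = DMSO vehicle control wells.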

CC[C@@]1(O)C(=O)OCc2c1cc1n(c2=O)Cc2cc3c(CN(C)C)c(O)ccc3nc2-1 + NC1CC1c1ccc(-c2cccc(O)c2)cc1
4.97 nM: IC50 [1]
active: viability, T/C [6] 5.55% | viability, T/C [7] 3.01% | viability, T/C [8] 4.91% | viability, T/C [9] 2.78% | viability, T/C (second compound 1 µM, first compound 0.01 µM) 10.1% | viability, T/C [10] 5.15% | viability, T/C [11] 2.6% | viability, T/C [12] 5.39% | viability, T/C [13] 2.8% | viability, T/C (second compound 10 µM, first compound 0.01 µM) 8.84% | viability, T/C [14] 5.04% | viability, T/C [15] 2.95%
inactive: viability, T/C (second compound 0.1 µM, first compound 0.000316 µM) 115% | viability, T/C (second compound 0.1 µM, first compound 0.001 µM) 108% | viability, T/C (second compound 0.1 µM, first compound 0.00316 µM) 74.8% | viability, T/C (second compound 0.1 µM, first compound 0.01 µM) 11.4% | viability, T/C (second compound 0.316 µM, first compound 0.000316 µM) 120% | viability, T/C (second compound 0.316 µM, first compound 0.001 µM) 116% | viability, T/C (second compound 0.316 µM, first compound 0.00316 µM) 74% | viability, T/C (second compound 0.316 µM, first compound 0.01 µM) 9.75% | viability, T/C (second compound 1 µM, first compound 0.000316 µM) 118% | viability, T/C (second compound 1 µM, first compound 0.001 µM) 116% | viability, T/C (second compound 1 µM, first compound 0.00316 µM) 72.4% | viability, T/C (second compound 3.16 µM, first compound 0.000316 µM) 122% | viability, T/C (second compound 3.16 µM, first compound 0.001 µM) 112% | viability, T/C (second compound 3.16 µM, first compound 0.00316 µM) 70.8% | viability, T/C (second compound 3.16 µM, first compound 0.01 µM) 10.1% | viability, T/C (second compound 10 µM, first compound 0.000316 µM) 91.9% | viability, T/C (second compound 10 µM, first compound 0.001 µM) 90.1% | viability, T/C (second compound 10 µM, first compound 0.00316 µM) 57.8%
4.86 nM: IC50 [2]
3.8 nM: IC50 [5]
4.78 nM: IC50 [3]
4.69 nM: IC50 [4]

Nc1ccn(C2OC(CO)C(O)C2(F)F)c(=O)n1 (configuration not stated)
< 0.949 nM: IC50 (curve of compound)
5.35% and 15%: viability, T/C (compound 0.000949 µM)
active: viability, T/C (compound 0.003 µM) 5.18% and 4.23% | viability, T/C (compound 0.00949 µM) 4.99% and 4.4% | viability, T/C (compound 0.03 µM) 4% and 4.8% | viability, T/C (compound 0.0949 µM) 4.25% and 4.46% | viability, T/C (compound 0.3 µM) 4.05% and 4.24%

COc1ccc([C@@H](O)c2cc(-c3ncnc4cc(N5CCOCC5)ccc34)c(F)cc2Cl)nn1 + NC1CC1c1ccc(-c2cccc(O)c2)cc1
185 nM: IC50 [5]
547 nM: IC50 [4]
644 nM: IC50 [3]
inactive: viability, T/C [6] 96.6% | viability, T/C [7] 88.1% | viability, T/C (second compound 0.1 µM, first compound 0.316 µM) 71.4% | viability, T/C (second compound 0.1 µM, first compound 1 µM) 42.1% | viability, T/C (second compound 0.1 µM, first compound 3.16 µM) 10.1% | viability, T/C [8] 104% | viability, T/C [9] 93.8% | viability, T/C (second compound 0.316 µM, first compound 0.316 µM) 87.7% | viability, T/C (second compound 0.316 µM, first compound 1 µM) 36.8% | viability, T/C [10] 106% | viability, T/C [11] 91.9% | viability, T/C (second compound 1 µM, first compound 0.316 µM) 75% | viability, T/C (second compound 1 µM, first compound 1 µM) 36.2% | viability, T/C (second compound 1 µM, first compound 3.16 µM) 7.37% | viability, T/C [12] 94.8% | viability, T/C [13] 83.5% | viability, T/C (second compound 3.16 µM, first compound 0.316 µM) 67.9% | viability, T/C (second compound 3.16 µM, first compound 1 µM) 32.1% | viability, T/C [14] 71.7% | viability, T/C [15] 62.7% | viability, T/C (second compound 10 µM, first compound 0.316 µM) 38.1% | viability, T/C (second compound 10 µM, first compound 1 µM) 21.9%
741 nM: IC50 [2]
active: viability, T/C (second compound 0.1 µM, first compound 10 µM) 3.99% | viability, T/C (second compound 0.316 µM, first compound 3.16 µM) 8.34% | viability, T/C (second compound 0.316 µM, first compound 10 µM) 3.86% | viability, T/C (second compound 1 µM, first compound 10 µM) 4.08% | viability, T/C (second compound 3.16 µM, first compound 3.16 µM) 6.81% | viability, T/C (second compound 3.16 µM, first compound 10 µM) 4.07% | viability, T/C (second compound 10 µM, first compound 3.16 µM) 4.81% | viability, T/C (second compound 10 µM, first compound 10 µM) 3.46%
696 nM: IC50 [1]

— PubChem BioAssay AID1918936 (Molecular Pharmacology Branch, DTP, NCI, 2023)
